Experimental data taken from ChEMBL document CHEMBL1201862, “PubChem BioAssay data set” (2004).
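Cultured in 96-well plates, cells were exposed to test compound for 48 hours across five concentrations. At the GI50, growth is halved.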 The source made the active and inactive calls. No stated cut-off is given here; in the data, active = GI50 up to about 1.1 µM and inactive = higher.

What was measured:
Assay in all cases: NCI tumour cell line growth inhibition, 48 h
COLO 205 = system: COLO 205
EKVX = system: EKVX
HCC 2998 = system: HCC 2998
HT-29 = system: HT-29
Hs-578T = system: Hs-578T
K562 = system: K562
MCF7 = system: MCF7
MDA-MB-435 = system: MDA-MB-435
OVCAR-3 = system: OVCAR-3
OVCAR-5 = system: OVCAR-5
PC-3 = system: PC-3
RPMI-8226 = system: RPMI-8226
SF-268 = system: SF-268
SF-295 = system: SF-295
SW-620 = system: SW-620
T47D = system: T47D
UACC-257 = system: UACC-257
MOLT-4 = system: MOLT-4
MDA-MB-231 = system: MDA-MB-231

Structure (SMILES) | GI50 (COLO 205) | GI50 (EKVX) | GI50 (HCC 2998) | GI50 (HT-29) | GI50 (Hs-578T) | GI50 (K562) | GI50 (MCF7) | GI50 (MDA-MB-435) | GI50 (OVCAR-3) | GI50 (OVCAR-5) | GI50 (PC-3) | GI50 (RPMI-8226) | GI50 (SF-268) | GI50 (SF-295) | GI50 (SW-620) | GI50 (T47D) | GI50 (UACC-257) | GI50 (MOLT-4) | GI50 (MDA-MB-231)
CC1C(c2ccc(F)cc2)c2cc3c(cc2OC1N1CCCC1)OCO3 (stereo not given) | 49.5 µM (inactive) | 34.1 µM (inactive) | 38.6 µM (inactive) | 47.8 µM (inactive) | 18 µM (inactive) | 42 µM (inactive) | 45.4 µM (inactive) | 44.6 µM (inactive) | 43.7 µM (inactive) | 47.5 µM (inactive) | 44.2 µM (inactive) | > 10 µM (inactive) | 36.8 µM (inactive) | 27.6 µM (inactive) | 47 µM (inactive) | 35.7 µM (inactive) | 55.1 µM (inactive) |  | 
O=C(Nc1ccccc1F)c1cc2ccc(O)cc2o/c1=N\c1cccc(C(F)(F)F)c1 | 18.6 µM (inactive) | 3.76 µM (inactive) | 8.2 µM (inactive) | 32.1 µM (inactive) | 1.94 µM (inactive) | 2.85 µM (inactive) | 2.94 µM (inactive) | 3.51 µM (inactive) | 3.77 µM (inactive) | 26.5 µM (inactive) | 3.76 µM (inactive) | 2.05 µM (inactive) | 2.82 µM (inactive) | 4.99 µM (inactive) | 3.08 µM (inactive) | 2.59 µM (inactive) | 4.02 µM (inactive) | 2.94 µM (inactive) | 
Cc1cccc2c1Oc1ncccc1C2NC(=O)CN(C)C (stereo not given) |  | > 10 µM (inactive) | > 10 µM (inactive) | > 10 µM (inactive) |  | > 10 µM (inactive) | > 10 µM (inactive) | > 10 µM (inactive) | > 10 µM (inactive) | > 10 µM (inactive) | > 10 µM (inactive) |  | > 10 µM (inactive) | > 10 µM (inactive) | > 10 µM (inactive) |  | > 10 µM (inactive) | > 10 µM (inactive) | 
Fc1cc(-c2ncc(Cl)cc2Cl)c2cccccc1-2 | > 100 µM (inactive) | > 100 µM (inactive) | > 100 µM (inactive) | 76.2 µM (inactive) | > 100 µM (inactive) |  | 35.7 µM (inactive) |  | > 100 µM (inactive) | > 100 µM (inactive) | > 100 µM (inactive) |  | > 100 µM (inactive) | > 100 µM (inactive) |  |  | > 100 µM (inactive) |  | > 100 µM (inactive)
CCOc1ccc(N2C(=O)NC3(c4ccccc4)N(C)C(=O)N(C)C23c2ccccc2)cc1 (stereo not given) | > 100 µM (inactive) | > 100 µM (inactive) |  | 94.2 µM (inactive) |  | 74 µM (inactive) | 46.2 µM (inactive) | > 100 µM (inactive) | > 100 µM (inactive) | > 100 µM (inactive) | 41 µM (inactive) | 57.1 µM (inactive) |  | 97.3 µM (inactive) | > 100 µM (inactive) |  | > 100 µM (inactive) | 30.4 µM (inactive) | 83.6 µM (inactive)
O=C(Nc1cc2c(=O)[nH]c3ccccc3c2oc1=O)c1cnccn1 | > 100 µM (inactive) | > 100 µM (inactive) | > 100 µM (inactive) | > 100 µM (inactive) |  | > 100 µM (inactive) | > 100 µM (inactive) | > 100 µM (inactive) | > 100 µM (inactive) | > 100 µM (inactive) | > 100 µM (inactive) |  |  | > 100 µM (inactive) | > 100 µM (inactive) | > 100 µM (inactive) | > 100 µM (inactive) | > 100 µM (inactive) | > 100 µM (inactive)
CC1CN=C(N(C(=O)Nc2ccc(Cl)cc2)c2cccc(Cl)c2)S1 (stereo not given) | 18.5 µM (inactive) | 31.2 µM (inactive) | 20.9 µM (inactive) | 23 µM (inactive) | 50.1 µM (inactive) | 7.06 µM (inactive) | 34.7 µM (inactive) |  | 40.6 µM (inactive) | > 100 µM (inactive) | 25.2 µM (inactive) | > 10 µM (inactive) | 54.2 µM (inactive) | 20.1 µM (inactive) | 41.9 µM (inactive) | 13 µM (inactive) | 28.2 µM (inactive) | > 10 µM (inactive) | 39.3 µM (inactive)
Cc1cccc(/C=N/NC(=S)N2CCCC2)n1 | 0.325 µM (active) | 0.304 µM (active) | 0.78 µM (active) | 0.0528 µM (active) |  | 0.2 µM (active) | 2.91 µM (inactive) | 0.493 µM (active) | 0.0255 µM (active) | 0.132 µM (active) | 0.346 µM (active) |  | 0.251 µM (active) | 0.266 µM (active) | 0.188 µM (active) | < 0.0306 µM (active) | 0.486 µM (active) | 0.0687 µM (active) | 0.133 µM (active)
[N-]=[N+]=CC(=O)OC1CCOCC1 | > 100 µM (inactive) | > 100 µM (inactive) | > 100 µM (inactive) | > 100 µM (inactive) |  | > 100 µM (inactive) | > 100 µM (inactive) | > 100 µM (inactive) | > 100 µM (inactive) | > 100 µM (inactive) | > 100 µM (inactive) | > 100 µM (inactive) | > 100 µM (inactive) | > 100 µM (inactive) | > 100 µM (inactive) |  | > 100 µM (inactive) | > 100 µM (inactive) | > 100 µM (inactive)
